Test results reported in patent publication US8609833B2, “Purine derivatives as adenosine A1 receptor agonists and methods of use thereof” (Inotek Pharmaceuticals Corporation, priority 2004, dated 2013).

Assays:
[1] = target: human recombinant A2A adenosine receptor (Homo sapiens (Human), UniProt P29274); assay: Adenosine A2A receptor binding, displacement of [3H]NECA; settings: displacement of specific [3H]NECA binding, CHO cells; geometric mean
Experimental: (§1) Membranes for radioligand binding experiments were prepared from fresh or frozen cells as described in Klotz et al., Naunyn-Schmiedeberg's Arch. […] The cell suspension was then homogenized in ice-cold hypotonic buffer (5 mM Tris/HCl, 2 mM EDTA, pH 7.4) and the homogenate was spun for 10 minutes (4° C.) at 1,000 g.
(§2) Nonspecific binding was determined in the presence of 100 μM R-PIA and 1 mM theophylline, respectively. For details see Klotz et al., Naunyn-Schmiedeberg's Arch.

[2] = target: human recombinant A3 adenosine receptor (Homo sapiens (Human), UniProt P0DMS8); assay: Adenosine A3 receptor binding, displacement of [3H]NECA; settings: displacement of specific [3H]NECA binding, HEK cells; geometric mean
Experimental: as §1, §2

[3] = system: male BALB/c mice; assay: Lipopolysaccharide-induced cytokine production (septic shock model); assay type: in vivo, mouse; settings: 0.03 mg/kg orally 30 min before LPS 1 mg/kg i.p.; measured 90 min after LPS
Experimental: (§3) Male BALB/c mice (6-8 weeks of age) were used in studies investigating lipopolysaccharide-induced cytokine production and survival. […] Serum was diluted 1:5 prior to being assayed for cytokines using species-specific ELISA kits (R & D Systems) for the chemokine MIP-1α and the cytokine TNF-α levels, which were expressed as pg/mL. […] The survival of the mice was followed over 72 h and expressed as a percentage of surviving mice at each time point. […] N=12-14 per group.

[4] = system: male BALB/c mice; assay: Lipopolysaccharide-induced mortality, survival study; assay type: in vivo, mouse; settings: 0.03 mg/kg orally 30 min before LPS 55 mg/kg i.p.; followed over 72 h
Experimental: as §3

[5] = system: isolated perfused rat hearts; assay: Ischemia-induced arrhythmias in isolated perfused rat hearts (LAD ligation)
Experimental: Male Sprague-Dawley rats (having a body weight of 250 to 300 g) were heparinized using sodium heparin (1,000 U/kg i.p.), followed 10 minutes later by introduction of anesthesia via intraperitoneal administration of sodium pentobarbital (40 mg/kg). Once the animal was anesthetized, the thorax was opened, and the heart was rapidly removed and perfused through the ascending aorta using Krebs-Ringer buffer consisting of NaCl (118 mmol/liter), KCl (4.75 mmol/liter), KH2PO4 (1.18 mmol/liter), MgSO4 (1.18 mmol/liter), CaCl2 (2.5 mmol/liter), NaHCO3 (25 mmol/liter), and glucose (11 mmol/liter). A mixture of 95% O2 and 5% CO2 at 37° C. was bubbled through the perfusate. The heart was initially perfused at a constant pressure of 70 mm Hg. About 10 min after the constant pressure perfusion, perfusion was switched to constant flow perfusion achieved using a microtube pump. The perfusion pressure was maintained at the same level of constant pressure perfusion by adjusting flow rate. Once the flow rate was determined, it was maintained throughout the experiment. The hearts were stimulated by rectangular pulses at a rate of 5 Hz and 2-millisecond duration and twice the diastolic threshold, delivered from a stimulus isolation unit (ADInstruments Ltd, Australia). Rat hearts were perfused at constant pressure of 70 mmHg without pacing as described above. Bipolar epicardial electrocardiogram (ECG) was recorded by placing two electrodes on the surface of right appendage and apex. A stainless steel cannula was used as indifferent electrode. The ECG and heart rate were continuously monitored and data were recorded using a PowerLab data acquisition system (ADInstruments Ltd, Australia) in conjunction with a Macintosh computer, and analyzed using Chart.3 computer package. After a 20-minute equilibration period, regional ischemia was induced by ligation of the left anterior descending (LAD) coronary artery, and the ligature was released 30 minutes after occlusion. […] The incidences of ventricular tachycardia (VT) were almost same in control non-treated (12/12) and in treated hearts (20/22). […]

[6] = system: isolated perfused rat hearts; assay: Function recovery after global ischemia/reperfusion in isolated perfused rat hearts; settings: 1 nM, infused 10 min before 30 min no-flow ischemia, 40 min reperfusion
Experimental: Male Sprague-Dawley rats (having a body weight of 250 to 300 g) were heparinized using sodium heparin (1,000 U/kg i.p.), followed 10 minutes later by introduction of anesthesia via intraperitoneal administration of sodium pentobarbital (40 mg/kg). Once the animal was anesthetized, the thorax was opened, and the heart was rapidly removed and perfused through the ascending aorta using Krebs-Ringer buffer consisting of NaCl (118 mmol/liter), KCl (4.75 mmol/liter), KH2PO4 (1.18 mmol/liter), MgSO4 (1.18 mmol/liter), CaCl2 (2.5 mmol/liter), NaHCO3 (25 mmol/liter), and glucose (11 mmol/liter). A mixture of 95% O2 and 5% CO2 at 37° C. was bubbled through the perfusate. The heart was initially perfused at a constant pressure of 70 mm Hg. About 10 min after the constant pressure perfusion, perfusion was switched to constant flow perfusion achieved using a microtube pump. The perfusion pressure was maintained at the same level of constant pressure perfusion by adjusting flow rate. Once the flow rate was determined, it was maintained throughout the experiment. The hearts were stimulated by rectangular pulses at a rate of 5 Hz and 2-millisecond duration and twice the diastolic threshold, delivered from a stimulus isolation unit (ADInstruments Ltd, Australia). Rat hearts were initially perfused at a constant pressure of 70 mm Hg using the procedure described above in section 6.12.1. […]

[7] = system: male mice; assay: Acute pain model, tail flick assay; assay type: in vivo, mouse; settings: 3 mg/kg i.p.
Experimental: The analgesic effects in mice was measured using an IITC model 33 tail-flick analgesia meter (IITC Inc., Woodland Hills, Calif.) at 0 minutes (baseline control), 5 minutes, 15 minutes, 30 minutes and 60 minutes (in some cases also 90 and 120 minutes) post-treatment. compound or vehicle treatment. Average recoding value of two readings was used for each time point. A baseline for every mouse between 2-4 seconds of latency and a 10-second cut-off time was set for the maximum possible effect of analgesia (% MPE). % MPE was calculated using the following formula: % MPE=[(post-drug value−baseline)/(cut-off time−baseline)]×100.

[8] = system: male mice; assay: Formalin pain model; assay type: in vivo, mouse; settings: 1.0 mg/kg i.p.
Experimental: Male mice (each having a body weight of 20-30 g) were subcutaneously administered 20 μl of a 1% formalin solution in formaldehyde (prepared by diluting a commercial 4% [w/v] stock formalin solution) into the dorsal region of their left hind paw. […] Both groups of animals were monitored for a reaction for 30 minutes post-treatment to determine how much time each animal spends licking the treated paw. The licking time in control group (vehicle pretreated animals) was then compared to the licking time in the treatment group in order to calculate the analgesic effect. The 30 minute reaction period was divided into two phases: an early phase which lasts from 0-5 minutes post-treatment, and a late phase which lasts from 10-30 minutes post-treatment.

[9] = system: BALB/C mice; assay: Allodynia in streptozotocin model of diabetic neuropathy; assay type: in vivo, mouse; settings: 1 mg/kg; 15, 30, 60 min after administration
Experimental: BALB/C mice (6-8 weeks of age) were intraperitoneally administered streptozotocin (40 mg/kg, once per day for 5 consecutive days) to induce diabetes (blood glucose levels were greater than […]).

[10] = system: male Wistar rats; assay: Mechanically induced pain threshold in carrageenan rat model; assay type: in vivo; settings: intrathecal, 5.0 mg/kg (FIG. 8); 15-120 min
Experimental: Male Wistar rats (each weighing between 200-250 g, kept under pathogen-free conditions at 24-25° C. and provided with standard rat chow and water ad libitum) were anaesthetized via intraperitoneal administration of pentobarbital (50 mg/kg) and placed in a stereotaxic frame. The atlanto-occipital membrane was exposed and a PE-10 catheter (7.5 cm) was inserted through an incision into the subarachnoidal space. The external end of the catheter was then fixed to the skull, the wound was closed, and the rats were allowed to recover for 7 days post-surgery. Animals without neurological deficits were placed in a plexiglass observation chamber on a metal mesh surface and mechanical thresholds of the plantar surface of the paw were determined using a Dynamic Plantar Aesthesiometer (Ugo Basile, Italy) as follows: Following acclimation, the touch stimulator unit was placed under the animal's paw such that the filament was positioned under the target area of the paw. The filament was then lifted such that it contacted the pad of the animal's paw and continually exerted an increasing upward force on the paw until the animal withdrew the paw. The paw withdrawal threshold was measured 5 times in this manner in turns and the mean of the 5 values was calculated. […] Three hours after the carrageenan administration, the threshold values were measured again.

[11] = system: male CD rats; assay: Sciatic nerve ligation allodynia, Von Frey Hair test; assay type: in vivo, rat
Experimental: The rats were then anesthetized via intraperitoneal administration of sodium pentobarbital (50 mg/kg). A skin incision was made at the upper ⅓ and ⅔ left thigh area of each rat and the left sciatic nerve was exposed and freed from the surrounding connective tissue. An 8-0 nylon suture was then used to tightly ligate the left sciatic nerve of each rat so that the dorsal ⅓ to ½ of the nerve thickness was trapped in the ligature. The incision was closed using 4-0 sterile suture.

[12] = system: adult male Wistar rats; assay: Effect on heart rate in anesthetized rats; assay type: in vivo, rat
Excerpt: Adult male Wistar rats (each weighing from about 350 g to about 400 g) were anesthetized as in Example 19, then prepared for monitoring of blood pressure and heart rate.

[13] = target: human recombinant A1 adenosine receptor (Homo sapiens (Human), UniProt P30542); assay: Adenosine A1 receptor binding, displacement of [3H]CCPA; settings: for Ki: displacement of specific [3H]CCPA binding, CHO cells, geometric mean; for selectivity for the adenosine A1 receptor: versus human A2A and A3 receptors, Table 1
Experimental: as §1
The affinities of selected Purine Derivatives for the adenosine A1 receptor were determined by measuring the displacement of specific [^3H]
as §2

Sequence of human recombinant A3 adenosine receptor (P0DMS8 whole entry): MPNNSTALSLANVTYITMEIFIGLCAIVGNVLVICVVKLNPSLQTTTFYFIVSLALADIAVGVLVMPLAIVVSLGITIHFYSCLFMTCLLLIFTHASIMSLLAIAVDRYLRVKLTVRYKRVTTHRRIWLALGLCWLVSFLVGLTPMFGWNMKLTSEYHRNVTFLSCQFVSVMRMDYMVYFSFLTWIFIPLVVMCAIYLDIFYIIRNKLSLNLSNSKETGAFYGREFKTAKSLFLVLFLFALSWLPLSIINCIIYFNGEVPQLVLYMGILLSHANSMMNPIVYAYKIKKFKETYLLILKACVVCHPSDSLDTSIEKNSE
Sequence of human recombinant A1 adenosine receptor (P30542 whole entry): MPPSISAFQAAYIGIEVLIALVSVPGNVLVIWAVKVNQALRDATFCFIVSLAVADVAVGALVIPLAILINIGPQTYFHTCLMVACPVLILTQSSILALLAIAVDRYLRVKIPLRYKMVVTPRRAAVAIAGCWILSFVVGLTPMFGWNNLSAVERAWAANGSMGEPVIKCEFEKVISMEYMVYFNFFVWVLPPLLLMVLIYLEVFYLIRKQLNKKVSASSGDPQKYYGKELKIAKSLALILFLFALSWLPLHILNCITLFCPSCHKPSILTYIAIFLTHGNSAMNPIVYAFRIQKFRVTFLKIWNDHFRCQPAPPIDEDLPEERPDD
Sequence of human recombinant A2A adenosine receptor (P29274 whole entry): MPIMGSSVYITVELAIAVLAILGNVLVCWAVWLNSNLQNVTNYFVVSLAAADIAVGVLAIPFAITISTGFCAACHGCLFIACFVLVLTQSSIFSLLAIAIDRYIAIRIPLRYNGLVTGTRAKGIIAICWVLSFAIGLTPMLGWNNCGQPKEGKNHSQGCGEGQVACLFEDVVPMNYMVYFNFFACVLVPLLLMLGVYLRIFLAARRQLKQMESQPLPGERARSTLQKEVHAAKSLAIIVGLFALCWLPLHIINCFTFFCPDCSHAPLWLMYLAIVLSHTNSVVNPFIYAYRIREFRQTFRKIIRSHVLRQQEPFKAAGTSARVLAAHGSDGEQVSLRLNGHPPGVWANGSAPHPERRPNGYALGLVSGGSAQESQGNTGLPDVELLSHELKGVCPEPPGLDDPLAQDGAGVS

## O=[N+]([O-])OC[C@H]1O[C@@H](n2cnc3c(NC4CCCC4)nc(Cl)nc32)[C@H](O)[C@@H]1O [Compound 16]
[1]
  Ki: 4190 nM

## O=[N+]([O-])OC[C@H]1O[C@@H](n2cnc3c(NC4CCCC4)ncnc32)[C@H](O)[C@@H]1O [Compound 17]
[1]
  Ki: 4690 nM
[2]
  Ki: 704 nM
[3]
  lipopolysaccharide-induced plasma MIP-1α production: reduces
  lipopolysaccharide-induced plasma TNF-α production: reduces
[4]
  lipopolysaccharide-induced mortality: reduces
[5]; 30 and 100 pM
  total duration of both VT and VF: significantly shortened
[5]; treated hearts (2/22), 10, 30 and 100 pM, non-treated 58% (7/12)
  incidence of ventricular fibrillation (VF): 9%
[5]; treated hearts, 10, 30 and 100 pM, non-treated 12/12
  incidence of ventricular tachycardia (VT): 20/22
[6]
  +dp/dtmax (maximal rate of development of left ventricular pressure): significantly improved
[7]
  analgesic effect, tail flick (% MPE): exerts a analgesic effect
[8]
  analgesic effect, paw licking time, late phase (10-30 min): exhibits an analgesic effect during the late phase
[8]; early phase 0-5 min
  response in first phase of formalin test: no response
[9]
  analgesic effect on allodynia: marked and lasting analgesic effect
[10]
  paw withdrawal (pain) threshold: effective for raising the pain threshold
[11]; 0.1 mg/kg alone
  analgesic effect on allodynia, alone: exerts an analgesic effect
[11]; 0.1 mg/kg co-administered with buprenorphine 0.3 mg/kg
  analgesic effect on allodynia, in combination with buprenorphine: exerts an analgesic effect
[12]; 10 ng/kg/minute i.v. for 20 minutes, lowered from 440 beats per minute
  heart rate: 370 beats per minute
[12]; 1000 ng/kg/minute i.v. for 20 minutes, reduced from 440 beats per minute
  heart rate: 150 beats per minute

## Nc1ncnc2c1ncn2[C@@H]1O[C@H](CO[N+](=O)[O-])[C@@H](O)[C@H]1O [Compound 18]
[13]
  Ki: 5.79 nM
  selectivity for the adenosine A1 receptor: selective for the adenosine A1 receptor
[1]
  Ki: 951 nM
[2]
  Ki: 216 nM

## Nc1nc(Cl)nc2c1ncn2[C@@H]1O[C@H](CO[N+](=O)[O-])[C@@H](O)[C@H]1O [Compound 19]
[13]
  Ki: 7 nM
  selectivity for the adenosine A1 receptor: selective for the adenosine A1 receptor
[1]
  Ki: 10000 nM
[2]
  Ki: 900 nM

## O=[N+]([O-])OC[C@H]1O[C@@H](n2cnc3c(NC4CCOC4)ncnc32)[C@H](O)[C@@H]1O (stereo partly drawn) [Compound 25]
[13]
  selectivity for the adenosine A1 receptor: selective for the adenosine A1 receptor
[1]
  Ki: > 100000 nM
[2]
  Ki: 2020 nM
